According to patent US10920236B2, “Use of micropeptides in order to stimulate mycorrhizal symbiosis” (UNIVERSITE TOULOUSE III—PAUL SABATIER, priority 2014, dated 2021):

Key:
[1] = system: mycorrhization of Oryza sativa by Rhizophagus irregularis; assay: Mycorrhization of Oryza sativa (rice); assay type: in vivo; settings: 0.1 μM, 5 weeks post inoculation; vs solvent control; FIGS. 13, 14, 15, 16 and 19
Method: The effects of the osmiPEP171i on mycorrhization of the rice were analyzed by treating the plants with osmiPEP171i in parallel with the mycorrhization.
The seeds are sterilized for 1 min with 70% ethanol, then for 30 min with sodium hypochlorite solution before rinsing.
Culturing of a previously germinated seed of rice is carried out in a pot containing vermiculite with cotton fibre at the bottom. 500 spores of Rhizophagus irregularis are added per pot. The spores in mixtures in a substrate are arranged in a layer on the vermiculite at approximately two thirds of the height of the pot. The remainder of the pot is then filled with vermiculite and a hole is made for placing a germinated rice seed therein. The substrate is moistened. The pots are then placed in a growing room at 25° C.
Treatments of the Plants with miPEP: • OsmiPEP171i: 0.1 μM (final) • Control: equivalent of 50% ACN solution
The treatments are carried out on Monday and Friday by mixing the solution of miPEP or control in 60 ml of nutrient solution (1/2 Hoagland with 25 μM Pi and Sequestren) and on Wednesday the solution of miPEP or control in 60 ml of water. Each plant is watered with 10 ml per pot. […]

[2] = system: mycorrhization of Solanum lycopersicum by Rhizophagus irregularis; assay: Mycorrhization of Solanum lycopersicum (tomato); assay type: in vivo; settings: 0.1 μM slmiPEP171e, watering every two days, 12 weeks post inoculation; vs solvent; FIGS. 8 and 17
Method: The effects of slmiPEP171e on mycorrhization of the tomato were analyzed by treating the plants with slmiPEP171e in parallel with the mycorrhization.
The seeds are sterilized for 2 minutes in sodium hypochlorite solution diluted ¼, then rinsed at least 8 times with sterile water.
The seeds are placed in a Petri dish containing water+1% agar. The dishes are placed at 4° C. overnight, then they are placed at ambient temperature for 4 days in order to germinate the seeds.
The germinated seeds are transferred to an Oil-Dry® substrate containing spores of Rhizophagus irregularis at the concentration of 400 spores/L. After two days of adaptation under mini-greenhouse the seedlings are transferred to a growing room or greenhouse. The plants are watered regularly with a solution of Long Ashton+nitrogen (Lauressergues et al., Plant J. 72(3):512-22, 2012).
The treatment is carried out by watering the plants with 12.5 ml of water+the concentrated solution of miPEP or the equivalent of solvent solution (50% acetonitrile) for the control treatment. The treatments are carried out every two days.
The roots are cleared with 1% KOH 7 minutes at 90° C., then stained 10 minutes in an ink solution (5% Sheaffer ink; 5% acetic acid) at 90° C.

[3] = system: miR171b; assay: Accumulation of miR171b in M. truncatula roots (qRT-PCR); assay type: in vivo, Medicago truncatula
Method: (§1) The surface of the seeds of M. truncatula was sterilized and they were placed to germinate on agar plates for 5 days at 4° C. in the dark. The young shoots were then grown on 12 cm square plates filled with Fahraeus medium without nitrogen and containing 7.5 μM phosphate (Lauresergues et al., Plant J., 72(3):512-22, 2012). The lateral roots were counted every day. In pots, the plants were watered every two days with modified Long Ashton medium containing little phosphorus (Balzergue et al., 2011 Journal of experimental botany, 62:1049-1060).
(§2) The peptides were synthesized by Eurogentec or Smartox-Biotech. The miPEP171b was placed in suspension in a water 40%/acetonitrile 50%/acetic acid 10% (v/v/v) solution.
The RNA was extracted by using the reagent Tri-Reagent (MRC) according to the manufacturer's instructions, with the exception of precipitation of the RNA which was carried out with 3 volumes of ethanol. […]
(§3) The mean values of the relative expression of the genes or of the production of lateral roots were analyzed by using the Student test or the Kruskal-Wallis test. […]
(§4) The composite plants having roots transformed with Agrobacterium Rhizogenes were obtained by the method described in Boisson-Dernier et al. (Mol Plant-Microbe Interact, 18:1269-1276, 2005). The transformed roots were verified and selected by observations of DsRED with a binocular fluorescence magnifier. […]

[4] = system: HAM1 (Accession No. MtGI9-TC114268); assay: Expression of the HAM1 gene in M. truncatula roots (qRT-PCR); assay type: in vivo, Medicago truncatula
Method: as §1, §2
(§5) The total RNA of the roots of M. truncatula was extracted by using the RNeasy Plant Mini Kit extraction kit (Qiagen). […]
as §3, §4

[5] = system: HAM2 (Accession No. MtGI9-TC120850); assay: Expression of the HAM2 gene in M. truncatula roots (qRT-PCR); assay type: in vivo, Medicago truncatula
Method: as §1, §2, §5, §3, §4

[6] = system: lateral roots of M. truncatula; assay: Number of lateral roots in M. truncatula; assay type: in vivo, Medicago truncatula
Method: as §1, §2
The mean values of the relative expression of the genes or of the production of lateral roots were analyzed by using the Student test or the Kruskal-Wallis test. The error bars represent the standard error of the mean (SEM). The asterisks indicate a significant difference (p<0.05).
The DNA fragments of interest were amplified with Pfu polymerase (Promega). […]
as §4

[7] = system: colonization of M. truncatula by the fungus Rhizophagus irregularis; assay: Mycorrhization of M. truncatula by Rhizophagus irregularis; assay type: in vivo, Medicago truncatula
Method: Medicago truncatula plants were treated for 5 weeks, by watering every 2 days, with low concentrations (0.1 μM) of a synthetic peptide the sequence of which is identical to that of miPEP171b, and the percentage colonization of the plant was measured.
Sterile spores of Rhizophagus irregularis (previously called Glomus intraradices) DAOM197198 were purchased from Agronutrition (Carbonne, France).
Seeds of M. truncatula (Gaertn ‘Jemalong’ genotype A17) were sterilized on the surface and placed to germinate on agar plates in the dark for 5 days at 4° C. The plants were then grown on an Oil-Dri US-special substrate (Damolin, Denmark) for 5 to 12 weeks in a growing room and watered every 2 days with modified Long Ashton medium containing a low concentration of phosphate (Balzergue et al., J Exp Bot, 62(3):1049-60, 2011).
For the inoculation of the plants with R. irregularis, 450 spores were used per plant.
After washing in KOH 10% (weight/volume) and rinsing in sterile water, the mycorrhized roots were treated for 30 minutes with wheat germ agglutinin fluorescein conjugate (Invitrogen) which fixes the fungal chitin, then washed 3 times in a PBS buffer. The roots were then observed with an inverted optical microscope or a confocal microscope (Leica, France).
Alternatively, the roots were labelled with black Schaeffer ink according to the protocol described in Vierheilig et al., Appl Environ Microbiol, 64:5004-5007, 1998.
The percentage mycorrhization was measured using grids according to the protocol described in Giovannetti and Mosse, New Phytol, 84:489-500, 1980.
The accurate phenotyping of the mycorrhization was also carried out according to the method of Trouvelot et al., Physiological and Genetical Aspects of Mycorrhizae, pp 217-221, 1986. The frequency of mycorrhization (F) in the root system and the abundance of the arbuscules (A) (as a percentage) were calculated in colonized root sections using the software Mycocalc.
The size of the arbuscules was measured using the software ImageJ. […]

[8] = system: mycorrhization of Lotus japonicus by Rhizophagus irregularis; assay: Mycorrhization of Lotus japonicus (birdsfoot trefoil); assay type: in vivo; settings: 0.1 μM, 5 weeks post inoculation; vs control; FIGS. 9, 10, 11, 12 and 18
Method: The effects of the LjmiPEP171b on mycorrhization of the birdsfoot trefoil were analyzed by treating the plants with LjmiPEP171b in parallel with the mycorrhization.
The seeds are sterilized in sodium hypochlorite solution for 20 min then rinsed several times in water.
Culturing of the birdsfoot trefoil plants is carried out in a pot containing vermiculite with cotton fibre at the bottom. 5,000 spores of Rhizophagus irregularis are added per pot. The spores in mixtures in a substrate are arranged in a layer on the vermiculite to approximately two thirds of the height of the pot. The remainder of the pot is then filled with vermiculite and 10 seeds of pre-germinated birdsfoot trefoil are placed in the moist substrate. 3 pots are prepared for each treatment. The pots are then places in a growing room at 25° C.
Treatments of the Plants with miPEP: • LjmiPEP171e: 0.1 μM (final) • Control: water.
The treatments are carried out on Monday and Friday by mixing the solution of miPEP or control with the nutrient solution (suitable B&D medium) and on Wednesday the solution of miPEP or control in water. Each pot is watered with 10 ml except on Friday 30 ml (without changing the quantity of miPEP), in order to last over the weekend. […]

[9] = plant in which miPEP171b is overexpressed vs control plant, FIG. 2A
[10] = synthetic peptide applied to roots, medium containing miPEP171b at 0.01 μM, 0.1 μM or 1 μM, vs control plant, FIG. 3A

MIARYIEREMTSKLGRGRKRAARLVAVFLLG (listed as Oryza sativa) [osmiPEP171i]
mycorrhization of rice [1]: promotes

MKLGNIEGTYFIICLGRYI (listed as Solanum lycopersicum) [slmiPEP171e]
mycorrhization of the tomato [2]: promotes

MLLHRLSKFCKIERDIVYIS (listed as Medicago truncatula) [miPEP171b]
accumulation of miR171b (relative expression) [3, 9]: increase
accumulation of miR171b (relative expression) [3, 10]: increase
expression of the HAM1 gene (relative expression) [4, 9]: reduction
expression of the HAM1 gene (relative expression) [4, 10]: reduction
expression of the HAM2 gene (relative expression) [5, 9]: reduction
expression of the HAM2 gene (relative expression) [5, 10]: reduction
average number of lateral roots ([6]; medium containing miPEP171b at 0.1 μM for 5 days and 1 time per day, vs control plant, FIG. 3B): reduction
average number of lateral roots ([6]; plant in which miPEP171b is overexpressed vs control plant, FIG. 2B): reduction
mycorrhization rate ([7]; 0.1 μM miPEP171b, 5 weeks post inoculation, vs control plants, FIG. 7): greater
mycorrhization (percentage colonization of the plant) ([7]; 0.1 μM synthetic peptide, watering every 2 days for 5 weeks, vs solvent control, FIG. 5): significantly increased
size (surface area) of the arbuscules ([7]; roots treated with 0.1 μM miPEP171b vs control roots, FIG. 6): larger size

MYHRSKAKLCQTDGDDGGGSDM (listed as Lotus japonicus) [LjmiPEP171b]
mycorrhization of birdsfoot trefoil [8]: promotes
